Test results as given in patent publication US20240254093A1, “GPR35 Agonist Compounds” (Heptares Therapeutics Limited, priority 2021, published 2024).

What was measured:
GPR35 = GPR35 (Homo sapiens (Human), UniProt Q9HC97); assay: Label-free DMR functional assay in HT-29 cells; type: cell-based; conditions: HT-29 cell line endogenously expressing human GPR35; DMR normalised to Lodoxamide
Description: HT-29 cells (ATCC HTB-38) kept in continuous culture in McCoys (Thermo 16600082) supplemented with 10% FBS. Day prior to assay, cells harvested with TrypLE (Gibco12604-013), and plated at 20 k/well in culture media in a total volume of 50 ul in Corning EPIC 384 well plates (5040) overnight 37° C. 5% CO2. On the day of assay, cell media was removed and replaced with assay buffer (HBSS+20 mM HEPES pH7.4) and reincubated for 1 h. Compounds were prepared in 100% DMSO in ECHO LDV 384 source plates. Cell plates were read on an EPIC plate reader at room temperature for 15 mins, read paused, and cell plate added to LabCyte ECHO 550 for addition of 50 nl per well compound by acoustic transfer. Plates were immediately placed back into the EPIC reader, read unpaused and Dynamic Mass Redistribution measured for 60 minutes. Raw data was analysed by EPIC Analyser software and max peak taken per concentration to enable EC50 determination. All raw DMR data was normalised to Lodoxamide and buffer corrected.
(§1) • Ki values derived from concentration response analysis in HEKf cell membranes overexpressing GPR35a isoform. EC50 values derived from concentration response analysis in HT-29 cell line endogenously expressing human GPR35.

Human GPR35a isoform = Human GPR35a isoform (Homo sapiens (Human), UniProt Q9HC97); assay: Human GPR35a isoform binding (radioligand, HEK293f membranes); conditions: HEKf cell membranes overexpressing GPR35a isoform; read-out: Human GPR35 Ki
Chain of Human GPR35a isoform (Q9HC97 whole entry, canonical isoform): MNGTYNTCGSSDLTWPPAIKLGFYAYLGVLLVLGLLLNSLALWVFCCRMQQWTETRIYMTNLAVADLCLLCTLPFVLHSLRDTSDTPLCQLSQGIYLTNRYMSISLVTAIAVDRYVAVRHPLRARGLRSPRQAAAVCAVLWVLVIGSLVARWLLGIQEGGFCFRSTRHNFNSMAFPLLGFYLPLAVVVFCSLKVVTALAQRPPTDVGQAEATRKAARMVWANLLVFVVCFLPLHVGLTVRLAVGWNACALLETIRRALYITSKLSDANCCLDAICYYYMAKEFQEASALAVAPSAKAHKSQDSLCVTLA
Description: Overexpression of Human GPR35a Baculovirus in HEK293f cells at a cell density of 2.5×10^6 cells/mL and a multiplicity of infection of 2.5 over 24 h in Pro293 (Lonza)+5% FBS, 1% Glutamax and 0.4% Pen/Strep. Cells harvested and centrifuged at 2500 RPM for 10 mins at 4° C. The supernatant was then poured off and the pellet stored at −80° C. The pellet was defrosted and re-suspended in 15 mL of homogenising buffer (20 mM HEPES, 10 mM EDTA, pH 7.4). Then homogenised in mechanical homogeniser (VMR) for 10 seconds. The membrane was centrifuged in centrifuge tubes at 40,000 g for 15 mins at 4° C. The supernatant was poured away and re-suspended in 15 mL of homogenising buffer. Homogenised for 20 seconds. The membrane was centrifuged at 40,000 g for 45 mins at 4° C. The membrane was re-suspended in 3 mL of storage buffer (20 mM HEPES, 0.1 mM EDTA, pH 7.4) mixing well. The resulting membranes were then stored at −80°. GPR35 cell membrane homogenates were re-suspended in the binding buffer (50 mM TRIS+10 mM MgCl2 pH 7.4) to a final assay concentration of 5 ug/well. Test compounds were diluted in dimethylsulphoxide (DMSO (Sigma Aldrich, UK)), to form a 10 point ½ log concentration curve. Test compounds were added per plate, followed by 7 nM 3H-27966. 0.1 uM FAC Lodoxamide was added in order to allow non-specific binding to be calculated. Finally, membrane was added to each well on the plate. After 60 min incubation at room temperature, membranes were filtered onto a unifilter, 96-well white microplate with bonded GF/B filter, pre-soaked in ddH20, with a TomTec cell harvester, and washed 5 times with distilled water. Plates were dried prior to 50 ul/well scintillant added, sealed and radioactivity measured using a MicroBeta analyser. IC50 values were derived from the inhibition curve and affinity constant (Ki) values were calculated using the Cheng-Prussoff equation, where; pKi=−log 10 Ki.
as §1

Chain of GPR35 (Q9HC97 whole entry): as the sequence (Q9HC97 whole entry, canonical isoform) above

SMILES | EC50 (GPR35) [nM] | Ki (Human GPR35a isoform) [nM]
O=c1c(O)c(Nc2cccc(-c3nn[nH]n3)c2)c1=O [Example 1, 3-((3-(1H-tetrazol-5-yl)phenyl)amino)-4-hydroxycyclobut-3-ene-1,2-dione] | 8.68 | 
O=c1c(O)c(Nc2cc(-c3nn[nH]n3)cc(C(F)(F)F)c2)c1=O [Example 2, 3-((3-(1H-tetrazol-5-yl)-5-(trifluoromethyl)phenyl)amino)-4-hydroxycyclobut-3-ene-1,2-dione] | 0.9 | 0.48
O=c1c(O)c(Nc2cc(-c3ccccc3)cc(-c3nn[nH]n3)c2)c1=O [Example 3, 3-((5-(1H-tetrazol-5-yl)-[1,1′-biphenyl]-3-yl)amino)-4-hydroxycyclobut-3-ene-1,2-dione] | 2.27 | 
CCOC(=O)c1cccc(-c2cc(Nc3c(O)c(=O)c3=O)cc(-c3nn[nH]n3)c2)c1 [Example 4, ethyl 3′-((2-hydroxy-3,4-dioxocyclobut-1-en-1-yl)amino)-5′-(1H-tetrazol-5-yl)-[1,1′-biphenyl]-3-carboxylate] | 2.5 | 3.83
O=C(NCc1ccccc1)c1cccc(-c2cc(Nc3c(O)c(=O)c3=O)cc(-c3nn[nH]n3)c2)c1 [Example 6, N-benzyl-3′-((2-hydroxy-3,4-dioxocyclobut-1-en-1-yl)amino)-5′-(1H-tetrazol-5-yl)-[1,1′-biphenyl]-3-carboxamide] | 0.62 | 1.82
COCCNC(=O)c1ccc(-c2cc(Nc3c(O)c(=O)c3=O)cc(-c3nn[nH]n3)c2)cc1 [Example 7, 3′-((2-hydroxy-3,4-dioxocyclobut-1-en-1-yl)amino)-N-(2-methoxyethyl)-5′-(1H-tetrazol-5-yl)-[1,1′-biphenyl]-4-carboxamide] | 4.2 | 2.77
COCCOc1ccc(CNC(=O)c2ccc(-c3cc(Nc4c(O)c(=O)c4=O)cc(-c4nn[nH]n4)c3)cc2)cc1 [Example 8, 3′-((2-hydroxy-3,4-dioxocyclobut-1-en-1-yl)amino)-N-(4-(2-methoxyethoxy)benzyl)-5′-(1H-tetrazol-5-yl)-[1,1′-biphenyl]-4-carboxamide] | 0.66 | 1.47
COc1cccc(-c2cc(Nc3c(O)c(=O)c3=O)cc(-c3nn[nH]n3)c2)c1 [Example 9, 3-hydroxy-4-((3′-methoxy-5-(1H-tetrazol-5-yl)-[1,1′-biphenyl]-3-yl)amino)cyclobut-3-ene-1,2-dione] | 0.83 | 0.46
CCc1cc(Nc2c(O)c(=O)c2=O)cc(-c2nn[nH]n2)c1 [Example 10, 3-((3-ethyl-5-(1H-tetrazol-5-yl)phenyl)amino)-4-hydroxycyclobut-3-ene-1,2-dione] | 2.34 | 2.75
O=C(O)c1cccc(-c2cc(Nc3c(O)c(=O)c3=O)cc(-c3nn[nH]n3)c2)c1 [Example 11, 3′-((2-hydroxy-3,4-dioxocyclobut-1-en-1-yl)amino)-5′-(1H-tetrazol-5-yl)-[1,1′-biphenyl]-3-carboxylic acid] | 4.31 | 6.24
O=C(NCc1ccc(C(F)(F)F)cc1)c1ccc(-c2cc(Nc3c(O)c(=O)c3=O)cc(-c3nn[nH]n3)c2)cc1 [Example 12, 3′-((2-hydroxy-3,4-dioxocyclobut-1-en-1-yl)amino)-5′-(1H-tetrazol-5-yl)-N-(4-(trifluoromethyl)benzyl)-[1,1′-biphenyl]-4-carboxamide] | 0.03 | 0.31
O=c1c(O)c(Nc2ccc(F)c(-c3nn[nH]n3)c2)c1=O [Example 13, 3-((4-fluoro-3-(1H-tetrazol-5-yl)phenyl)amino)-4-hydroxycyclobut-3-ene-1,2-dione] | 2.39 | 0.99
O=c1c(O)c(Nc2ccc(Cl)c(-c3nn[nH]n3)c2)c1=O [Example 14, 3-((4-chloro-3-(1H-tetrazol-5-yl)phenyl)amino)-4-hydroxycyclobut-3-ene-1,2-dione] | 4.9 | 0.6
O=c1c(O)c(Nc2cc(-c3ccc(C(F)(F)F)cc3)cc(-c3nn[nH]n3)c2)c1=O [Example 15, 3-((5-(1H-tetrazol-5-yl)-4′-(trifluoromethyl)-[1,1′-biphenyl]-3-yl)amino)-4-hydroxycyclobut-3-ene-1,2-dione] | 2.02 | 0.16
O=c1c(O)c(Nc2cc(-c3ccc(OCc4ccccc4)nc3)cc(-c3nn[nH]n3)c2)c1=O [Example 16, 3-((3-(6-(benzyloxy)pyridin-3-yl)-5-(1H-tetrazol-5-yl)phenyl)amino)-4-hydroxycyclobut-3-ene-1,2-dione] | 0.27 | 0.06
COc1cc(-c2nn[nH]n2)cc(Nc2c(O)c(=O)c2=O)n1 [Example 17, 3-hydroxy-4-((6-methoxy-4-(1H-tetrazol-5-yl)pyridin-2-yl)amino)cyclobut-3-ene-1,2-dione] | 9.25 | 7.85
O=c1c(O)c(Nc2cc(-c3nn[nH]n3)cc(-c3ccccc3)n2)c1=O [Example 18, 3-hydroxy-4-((6-phenyl-4-(1H-tetrazol-5-yl)pyridin-2-yl)amino)cyclobut-3-ene-1,2-dione] | 5.18 | 2.65
O=c1c(O)c(Nc2cc(-c3ccc4nn(Cc5ccc(C(F)(F)F)cc5)cc4c3)cc(-c3nn[nH]n3)c2)c1=O [Example 19, 3-((3-(1H-tetrazol-5-yl)-5-(2-(4-(trifluoromethyl)benzyl)-2H-indazol-5-yl)phenyl)amino)-4-hydroxycyclobut-3-ene-1,2-dione] | 0.08 | 0.36
O=c1c(O)c(Nc2cc(-c3ccc(OCc4ccc(C(F)(F)F)cc4)nc3)cc(-c3nn[nH]n3)c2)c1=O [Example 20, 3-((3-(1H-tetrazol-5-yl)-5-(6-((4-(trifluoromethyl)benzyl)oxy)pyridin-3-yl)phenyl)amino)-4-hydroxycyclobut-3-ene-1,2-dione] | 7.68 | 1.06
O=c1c(O)c(Nc2cc(-c3nn[nH]n3)cc(Oc3ccccc3)n2)c1=O [Example 22, 3-hydroxy-4-((6-phenoxy-4-(1H-tetrazol-5-yl)pyridin-2-yl)amino)cyclobut-3-ene-1,2-dione] | 1.39 | 3.66
O=c1c(O)c(Nc2cc(-c3ccc4cn(CCOc5ccc(C(F)(F)F)cc5)nc4c3)cc(-c3nnn[nH]3)c2)c1=O [Example 23, 3-((3-(1H-tetrazol-5-yl)-5-(2-(2-(4-(trifluoromethyl)phenoxy)ethyl)-2H-indazol-6-yl)phenyl)amino)-4-hydroxycyclobut-3-ene-1,2-dione] | 0.12 | 0.46
O=c1c(O)c(Nc2cc(-c3nn[nH]n3)cc(C3CC3)c2)c1=O [Example 24, 3-((3-cyclopropyl-5-(1H-tetrazol-5-yl)phenyl)amino)-4-hydroxycyclobut-3-ene-1,2-dione] | 8.19 | 15.2
O=c1c(O)c(Nc2cc(-c3ccc4[nH]ncc4c3)cc(-c3nn[nH]n3)c2)c1=O [Example 25, 3-((3-(1H-indazol-5-yl)-5-(1H-tetrazol-5-yl)phenyl)amino)-4-hydroxycyclobut-3-ene-1,2-dione] | 0.44 | 0.37
O=c1c(O)c(Nc2cc(-c3ccc(OCCOc4cc(C(F)(F)F)cc(C(F)(F)F)c4)nc3)cc(-c3nn[nH]n3)c2)c1=O [Example 26, 3-((3-(6-(2-(3,5-bis(trifluoromethyl)phenoxy)ethoxy)pyridin-3-yl)-5-(1H-tetrazol-5-yl)phenyl)amino)-4-hydroxycyclobut-3-ene-1,2-dione] | 1.04 | 0.36
